Results as given in PubChem BioAssay AID608 (Sanford-Burnham Center for Chemical Genomics, 2007).
Calls of active or inactive are those of the source. The rule behind the calls is not given here.

What follows are compounds tested against Peptidyl-prolyl cis-trans isomerase FKBP1A (Homo sapiens) (UniProt P62942) (assay: small-molecule binding to FKBP12 – biophysical, NMR detection (AID 608)). Details: purified FKBP12.
Chain of Peptidyl-prolyl cis-trans isomerase FKBP1A (Homo sapiens) (P62942 whole entry, looked up): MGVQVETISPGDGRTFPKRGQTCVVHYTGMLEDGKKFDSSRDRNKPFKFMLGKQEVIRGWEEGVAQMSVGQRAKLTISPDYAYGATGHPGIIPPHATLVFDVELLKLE

Structure (SMILES) | Kd
O=C(NCc1ccccc1Br)c1ccco1 | > 4 mM (inactive)
Nc1ccc(-n2cncn2)cc1 | > 4 mM (inactive)
O=C(O)c1ccccc1C(=O)NCC1CCCO1 (configuration not stated) | > 4 mM (inactive)
COc1cc2c(cc1OC)[C@@]13CCN4CC5=CCOC6CC(=O)N2C1[C@H]6[C@H]5C[C@H]43 (some centres not stated) | > 4 mM (inactive)
OC1CCNC2CCCCC12 (configuration not stated) | > 4 mM (inactive)
Nc1ncnc2nc(SCCN3CCCCC3)[nH]c12 | > 4 mM (inactive)
OC1CNCc2cc3c(cc21)OCCO3 (configuration not stated) | > 4 mM (inactive)
C=C1C2=CC(=O)O[C@@H](c3ccoc3)[C@]2(C)CCC1[C@@]1(C)C=CC(=O)C(C)(C)[C@@H]1CC(=O)OC (some centres not stated) | > 4 mM (inactive)
Cc1ccc(SCc2nc(-c3ccncc3)no2)cc1 | inactive
O=C(Nc1ccccc1CO)c1ccccc1F | > 4 mM (inactive)
CC(=O)c1sc(NC(=O)C=C(C)C)nc1C | > 4 mM (inactive)
O=C1c2ccccc2C(=O)N1Cc1ccco1 | > 4 mM (inactive)
Cc1onc(-c2c(F)cccc2Cl)c1C(N)=O | > 4 mM (inactive)
CC1=C(C(N)=O)C(c2ccco2)C(C(N)=O)=C(C)N1 | > 4 mM (inactive)
NC(=O)Cn1cnc2ccccc21 | > 4 mM (inactive)
CN(C(N)=O)C1(C)CCS(=O)(=O)C1 (configuration not stated) | > 4 mM (inactive)
FC(F)(F)c1cc(-c2ccco2)nc(N2CCOCC2)n1 | > 4 mM (inactive)
COc1ccc2cc3[n+](cc2c1OC)CCc1cc2c(cc1-3)OCO2 | > 4 mM (inactive)
O=C(Nc1ccccc1)C(=O)NC1CC1 | > 4 mM (inactive)
S=C(NC1=NCCS1)Nc1ccccc1 | > 4 mM (inactive)
O=C1C2CC=CCC2C(=O)N1c1ccccc1 (configuration not stated) | 0.0261 mM
Cn1c(=O)c2c(n(C)c1=O)=NC1(CCCCC1)N=2 | > 4 mM (inactive)
Cc1onc(-c2ccc(F)cc2)c1C(=O)O | > 4 mM (inactive)
O=C(O)C(Cc1cnc[nH]1)N1C(=O)c2ccccc2C1=O (configuration not stated) | > 4 mM (inactive)

Structure (SMILES) | Kd
N#C/C(=C\c1ccc[nH]1)S(=O)(=O)c1ccccc1 | > 4 mM (inactive)
O=c1c2ccccc2oc2ccccc12 | > 4 mM (inactive)
NC(=O)c1ccsc1NC(=O)C1=COCCO1 | > 4 mM (inactive)
CN1CCN(C(=O)c2ccccc2C(=O)O)CC1 | > 4 mM (inactive)
Cc1nc2[nH]onc2c2nccc(=O)c12 | > 4 mM (inactive)
Cc1ccc(SCCN2C(=O)NC(C)(C)C2=O)cc1 | 0.27 mM
CCN(CC)S(=O)(=O)c1cccc2nsnc12 | > 4 mM (inactive)
Nc1ccc(S(=O)(=O)N2CCOCC2)cc1 | > 4 mM (inactive)
COc1ccc(-c2nc(N)n(C(C)=O)n2)cc1 | > 4 mM (inactive)
Nc1ncnc(NCCOCCO)c1[N+](=O)[O-] | > 4 mM (inactive)
Cc1cccn2cc(CNc3ccccc3)nc12 | > 4 mM (inactive)
Cc1cc(OCC(=O)N2CCOCC2)ccc1C(C)C | inactive
CC1(C)O[C@H]2CC(=O)OC[C@]23[C@H]2CC[C@@]4(C)[C@H](c5ccoc5)OC(=O)[C@H]5O[C@]54[C@]2(C)C(=O)C[C@@H]13 | > 4 mM (inactive)
Cc1sc2nc(SC3CCOC3=O)[nH]c(=O)c2c1C (configuration not stated) | > 4 mM (inactive)
Cc1nnc(NCCCO)[nH]c1=O | > 4 mM (inactive)
O=C(CN1CCOCC1)Nc1cccc(Br)c1 | > 4 mM (inactive)
Nc1ncnc2nc[nH]c12 | > 4 mM (inactive)
O=C(CN1C(=O)CCC1=O)c1ccccc1 | > 4 mM (inactive)
O=C1CNC(=O)N1Cc1ccc(F)cc1 | > 4 mM (inactive)
COc1c2c(cc3c1OCO3)C13C=C[C@H](OC)CC1N(C2)CC3O (some centres not stated) | > 4 mM (inactive)
CCOC(=O)C1CCC(=O)c2cccn21 (configuration not stated) | > 4 mM (inactive)
NC(Cn1ccc(=O)c(O)c1)C(=O)O (configuration not stated) | > 4 mM (inactive)
NS(=O)(=O)c1ccc(NC(=O)/C=C\C(=O)O)cc1 | > 4 mM (inactive)
COc1c2ccoc2c(OC)c2oc(=O)ccc12 | > 4 mM (inactive)

Structure (SMILES) | Kd
CC1=C2[C@H]3OC(=O)[C@@H](C)[C@@H]3CC[C@@]2(C)C=CC1=O | > 4 mM (inactive)
Nc1nc(-c2ccccc2)cc(=O)[nH]1 | > 4 mM (inactive)
Cc1cc(NC(=O)c2cnn3cccnc23)no1 | > 4 mM (inactive)
Cc1nc2ccccc2c(=O)n1CCCn1ccnc1 | > 4 mM (inactive)
Cn1cnc2c(=S)[nH]c(=O)n(Cc3ccccc3)c21 | > 4 mM (inactive)
Cc1c(C(=O)Nc2cnccn2)oc2ccccc12 | > 4 mM (inactive)
Cc1ccc(C(=O)N2CCC(C(N)=O)CC2)cc1C | > 4 mM (inactive)
CC(=O)O[C@@H]1CC2C(C)(C)C=CC(=O)[C@]2(C)C2CC[C@@]3(C)[C@H](c4ccoc4)OC(=O)C4OC43[C@@]21C (some centres not stated) | > 4 mM (inactive)
O=S(=O)(Nc1cc(Cl)cc(Cl)c1)N1CCCCC1 | inactive
c1ccc(-c2noc(-c3ccco3)n2)nc1 | > 4 mM (inactive)
Cc1nn(C)c(C)c1C(=O)O | > 4 mM (inactive)
COc1ccc2c(c1)OC/C(=C/c1ccc(O)c(O)c1)C2=O | > 4 mM (inactive)
Cc1cc(C)c(OCC(=O)N2CCOCC2)c(C)c1 | inactive
Oc1ccccc1N1CCOCC1 | > 4 mM (inactive)
Cc1ccc(OCC(=O)N2CC(C)OC(C)C2)cc1C (configuration not stated) | > 4 mM (inactive)
O=c1cnnc(Nc2ccc(O)cc2)[nH]1 | > 4 mM (inactive)
NC1=NN(c2ccccc2)C(=O)C1 | > 4 mM (inactive)
O=C(O)CCc1c[nH]c2ccccc12 | > 4 mM (inactive)
NC(=O)c1cccnc1Oc1ccccc1 | > 4 mM (inactive)
COc1cc(C)c2c(c1C=O)Oc1c(c(C)c(O)c3c1C(O)OC3=O)OC2=O (configuration not stated) | > 4 mM (inactive)
O=C1CCCCCN1CO | > 4 mM (inactive)
CC(=O)Nc1cccc(N2C(=O)CCC2=O)c1 | > 4 mM (inactive)
COc1ccc2c3c([nH]c2c1)C(C)=NCC3 | > 4 mM (inactive)
COc1cc2cc[n+]3cc4c(OC)c(OC)ccc4cc3c2cc1OC | > 4 mM (inactive)

Structure (SMILES) | Kd
Cn1c(SCC(N)=O)nnc1-c1cccnc1 | > 4 mM (inactive)
Cc1cc(N)n(-c2ccccc2)n1 | > 4 mM (inactive)
CS(=O)(=O)c1cccc(C(=O)Nc2nccs2)c1 | > 4 mM (inactive)
C=C[C@@]1(C)CC(=O)[C@@]2(O)[C@](C)(O1)[C@@H](OC(C)=O)[C@@H](O)C1C(C)(C)CC[C@H](O)[C@@]12C (some centres not stated) | > 4 mM (inactive)
O=C(Nc1ccc(OCC(=O)N2CCOCC2)cc1)c1ccccc1Cl | > 4 mM (inactive)
N/N=C1\CCCc2c1no[n+]2[O-] | > 4 mM (inactive)
O=C(CSc1ccccc1)N1CCC2(CC1)OCCO2 | > 4 mM (inactive)
CC(=O)Nc1sc(C)c(C)c1C(N)=O | > 4 mM (inactive)
O=c1[nH]c2ccccc2c(=O)n1CCCO | > 4 mM (inactive)
CC(C)(C)C(=O)N1CCCC1C(=O)O (configuration not stated) | > 4 mM (inactive)
COc1ccccc1C(=O)Nc1ccccn1 | > 4 mM (inactive)
CCc1c(C(=O)Nc2ccncc2)csc1C | > 4 mM (inactive)
CCOC(=O)CSCC(=O)Nc1nccs1 | > 4 mM (inactive)
S=c1nc[nH]c2c1cnn2-c1ccccc1 | > 4 mM (inactive)
O=C(Nc1cccnc1)c1ccc(Br)s1 | > 4 mM (inactive)
Cc1ccc(C)n1NC(=O)c1cccs1 | > 4 mM (inactive)
Cc1cccc(NC(=O)Nc2cc(C)on2)c1 | > 4 mM (inactive)
C=C(C)[C@@H]1CC[C@]2(CO)CC[C@]3(C)[C@H](CCC4[C@@]5(C)CC[C@H](O)C(C)(C)C5CC[C@]43C)C12 (some centres not stated) | > 4 mM (inactive)
O=C(Cc1ccc(F)cc1)Nc1ncccn1 | > 4 mM (inactive)
CCCCCC(=O)Cc1cc(O)cc(O)c1C(=O)Oc1cc(CC(=O)CCCCC)c(C(=O)O)c(OC)c1 | > 4 mM (inactive)
O=C(NCN1CCOCC1)c1cnccn1 | > 4 mM (inactive)
N=c1n(N)c2ccccc2n1CCO | > 4 mM (inactive)
[O-][n+]1onc2c1CCc1c-2nn(-c2ccccc2)[n+]1[O-] | > 4 mM (inactive)
NC(=O)C1CCN(S(=O)(=O)c2ccccc2)CC1 | > 4 mM (inactive)

Structure (SMILES) | Kd
NC(=S)NC(=O)CN1C(=O)c2ccccc2C1=O | > 4 mM (inactive)
Cc1n[nH]c(C)c1CC(=O)O | > 4 mM (inactive)
Cc1ccc(C(=O)N2CCC(C(N)=O)CC2)c(Cl)c1 | > 4 mM (inactive)
O=C(O)C1CN(Cc2ccccc2)CCO1 (configuration not stated) | > 4 mM (inactive)
C=CC(C1=CC(=O)C(OC)=CC1=O)c1ccc(O)cc1 (configuration not stated) | > 4 mM (inactive)
NC(=O)c1oc2ccccc2c1N | > 4 mM (inactive)
Nc1ccc2c(c1)CCC2=O | > 4 mM (inactive)
CC(C)(C)CC(=O)N1CCC(C(N)=O)CC1 | > 4 mM (inactive)
O=c1c2ccccc2nc2n1CCC2O (configuration not stated) | > 4 mM (inactive)
O=C1CCC([N+](=O)[O-])C(c2ccccc2F)N1 (configuration not stated) | > 4 mM (inactive)
COc1cc2c3cc1Oc1cc(ccc1O)C[C@@H]1c4c(cc(OC)c(O)c4Oc4ccc(cc4)C[C@@H]3N(C)CC2)CC[N+]1(C)C | > 4 mM (inactive)
Cc1cc(C(=O)Nc2sc(C)c(C)c2C#N)no1 | > 4 mM (inactive)
Cn1c(=O)c2[nH]cnc2n(-c2ccccc2)c1=O | > 4 mM (inactive)
Cc1cc(C)n2nc(C(=O)NCc3ccco3)nc2n1 | > 4 mM (inactive)
CC(C)=CCCC1(C)C=Cc2c(O)c3c(c(CC=C(C)C)c2O1)OC12C(=CC4CC1C(C)(C)OC2(C/C=C(/C)C(=O)O)C4O)C3=O (configuration not stated) | > 4 mM (inactive)
Cc1cc(C(=O)Nc2cccnc2)cs1 | > 4 mM (inactive)
CN1C2CC(OC(=O)[C@H](CO)c3ccccc3)C[C@H]1[C@H]1OC21 (some centres not stated) | > 4 mM (inactive)
COc1ccc(-c2oc3cc(O[C@H]4O[C@H](CO)[C@@H](O)[C@H](O)[C@H]4O)c(OC)c(O)c3c(=O)c2OC)cc1O | > 4 mM (inactive)
O=C(NCc1cccs1)c1nn2cccnc2c1Cl | > 4 mM (inactive)
O=C(O)c1cc2ccccc2[nH]1 | > 4 mM (inactive)
OCc1cccc2c1OCO2 | > 4 mM (inactive)
